Several values for one entry are separate records, joined by “and”; a condition that tells them apart may be missing. Identical values can stand only once.
How the values were obtained:
MDA-MB-231 [1] = experiment: drug sensitivity score (DSS); higher = more sensitive; extreme values may be limits of the assay; conditions: incubation time: 72 h
Description: (§1)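 MDA-MB-231 breast cancer cells were transfected with siBRCA1 or non-targeting siControl, then seeded 24 h later at 4000 cells/well in 384-well plates holding 198 drugs at 5 concentrations. Viability was read by CellTiter-Blue after 72 h at 37 °C. Dose-response curves were fitted in Dotmatics to give IC50 and a drug sensitivity score (DSS: area under the curve relative to the area between the 10% threshold and 100% inhibition, normalised by the log of the top response). The dose range is not stated. IC50 values of 8333.3 or 4166.7 nM mark no response (top dose), and 0.8333 nM is the lower limit.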

MDA-MB-231 [2] = conditions: incubation time: 72 h
Description: as §1

[3] = siRNA: siControl (non-targeting)

Row | Compound | drug sensitivity score (MDA-MB-231 [1]; siRNA: siBRCA1) | drug sensitivity score (MDA-MB-231 [1]; [3]) | IC50 of cell viability (MDA-MB-231 [2]; siRNA: siBRCA1) | IC50 of cell viability (MDA-MB-231 [2]; [3]) [nM]
1 | CS(=O)(=O)N1CCN(Cc2cc3nc(-c4cccc5[nH]ncc45)nc(N4CCOCC4)c3s2)CC1 [GDC-0941 (Pictilisib)] | 7.18 | 12 | 2530 nM | 570
2 | CC[C@@]1(O)C(=O)OCc2c1cc1n(c2=O)Cc2cc3c(CN(C)C)c(O)ccc3nc2-1 [Topotecan] | 10.4 | 10.6 | 661 nM | 766
3 | C#Cc1cccc(Nc2ncnc3cc(OCCOC)c(OCCOC)cc23)c1 [Erlotinib] | 0 | 0 | > 4170 nM | > 4170
4 | N#CC[C@H](C1CCCC1)n1cc(-c2ncnc3[nH]ccc23)cn1 [Ruxolitinib] | 0 | 0 | > 4170 nM | > 4170
5 | Nc1ccn([C@@H]2O[C@H](CO)[C@@H](O)[C@@H]2O)c(=O)n1 [Cytarabine] | 5.84 | 6.18 | 591 nM | 294
6 | CC(C)Cn1cnc2c(N)nc3ccccc3c21 [Imiquimod] | 0 | 0 | > 4170 nM | > 4170
7 | CCN(CC)CCNC(=O)c1c(C)[nH]c(/C=C2\C(=O)Nc3ccc(F)cc32)c1C [Sunitinib] | 5.44 | 4.28 | 2770 nM | 3520
8 | CC(C)C[C@H](NC(=O)[C@H](CCc1ccccc1)NC(=O)CN1CCOCC1)C(=O)N[C@@H](Cc1ccccc1)C(=O)N[C@@H](CC(C)C)C(=O)[C@@]1(C)CO1 [Carfilzomib] | 39.3 | 33.7 | 4.01 nM | 13.6
9 | C[C@]12C=CC(=O)C=C1CC[C@@H]1[C@@H]2C(=O)C[C@@]2(C)[C@H]1CC[C@]2(O)C(=O)CO [Prednisone] | 0 | 0 | > 4170 nM | > 4170
10 | COc1cc(OC2CCN(C)CC2)ccc1Nc1ncc2c(n1)n(C1CCCC1)c(=O)n2C [AZ 3146] | 0 | 0 | > 4170 nM | > 4170
11 | N#Cc1ccc(C(c2ccc(C#N)cc2)n2cncn2)cc1 [Letrozole] | 0 | 0 | > 4170 nM | > 4170
12 | CC(C)C[C@H](NC(=O)[C@H](Cc1ccccc1)NC(=O)c1cnccn1)B(O)O [Bortezomib] | 37.9 | 32.2 | 6.91 nM | 18.6
13 | CN(Cc1cnc2nc(N)nc(N)c2n1)c1ccc(C(=O)N[C@@H](CCC(=O)O)C(=O)O)cc1 [Methotrexate] | 0 | 9.3 | > 4170 nM | 4.32
14 | Nc1cccc2c1CN(C1CCC(=O)NC1=O)C2=O (configuration not stated) [Lenalidomide] | 0 | 0 | > 4170 nM | > 4170
15 | CC(C)(C)c1cnc(CSc2cnc(NC(=O)C3CCNCC3)s2)o1 [SNS-032] | 23.9 | 27.6 | 53.1 nM | 30.1
16 | Cn1c(=O)n(-c2ccc(C(C)(C)C#N)cc2)c2c3cc(-c4cnc5ccccc5c4)ccc3ncc21 [NVP-BEZ235 (Dactolisib)] | 16.9 | 16.6 | 8.83 nM | 10.2
17 | Cc1c(C(=O)Nc2ccc(N3C[C@@H](C)O[C@@H](C)C3)nc2)cccc1-c1ccc(OC(F)(F)F)cc1 [NVP-LDE225] | 0 | 0 | > 4170 nM | > 4170
18 | CC[C@]1(O)C[C@H]2CN(CCc3c([nH]c4ccccc34)[C@@](C(=O)OC)(c3cc4c(cc3OC)N(C=O)[C@H]3[C@@](O)(C(=O)OC)[C@H](OC(C)=O)[C@]5(CC)C=CCN6CC[C@]43[C@@H]65)C2)C1 [Vincristine] | 31.3 | 32.2 | 5.32 nM | 3.55
19 | COc1cccc2cc(-c3nc([C@H]4CC[C@H](C(=O)O)CC4)n4ncnc(N)c34)[nH]c12 [OSI-027] | 7.16 | 7.26 | 973 nM | 1080
20 | C[C@]12CC[C@H](O)CC1=CC[C@@H]1[C@@H]2CC[C@]2(C)C(c3cccnc3)=CC[C@@H]12 [Abiraterone] | 0 | 0 | > 4170 nM | > 4170
21 | CO[C@H]1C[C@@H]2CC[C@@H](C)[C@@](O)(O2)C(=O)C(=O)N2CCCC[C@H]2C(=O)O[C@H]([C@H](C)C[C@@H]2CC[C@@H](OCCO)[C@H](OC)C2)CC(=O)[C@H](C)/C=C(\C)[C@@H](O)[C@@H](OC)C(=O)[C@H](C)C[C@H](C)/C=C/C=C/C=C/1C [Everolimus] | 19.8 and 16.9 | 21.1 and 21.8 | 1.12 nM and < 0.833 nM | < 0.833
22 | CO[C@H]1C[C@@H]2CC[C@@H](C)[C@@](O)(O2)C(=O)C(=O)N2CCCC[C@H]2C(=O)O[C@H]([C@H](C)C[C@@H]2CC[C@@H](O)[C@H](OC)C2)CC(=O)[C@H](C)/C=C(\C)[C@@H](O)[C@@H](OC)C(=O)[C@H](C)C[C@H](C)/C=C/C=C/C=C/1C [Rapamycin (Sirolimus)] | 15.5 | 15.3 | 0.904 nM | < 0.833
23 | COc1cccc2c1C(=O)c1c(O)c3c(c(O)c1C2=O)C[C@@](O)(C(C)=O)C[C@@H]3O[C@H]1C[C@H](N)[C@H](O)[C@H](C)O1 [Daunorubicin] | 19.8 | 24.9 | 159 nM | 52.2
24 | CS(=O)(=O)CCNCc1ccc(-c2ccc3ncnc(Nc4ccc(OCc5cccc(F)c5)c(Cl)c4)c3c2)o1 [Lapatinib] | 4.84 | 0 | 1150 nM | > 4170
25 | COc1c2occc2cc2ccc(=O)oc12 [Methoxsalen] | 0 | 0 | > 4170 nM | > 4170
26 | C[C@]12CC[C@@H]3c4ccc(O)cc4C[C@@H](CCCCCCCCC[S+]([O-])CCCC(F)(F)C(F)(F)F)[C@H]3[C@@H]1CC[C@@H]2O (some centres not stated) [Fulvestrant] | 0 | 0 | > 4170 nM | > 4170
27 | COc1cc2c(cc1O)CC[C@@H]1[C@@H]2CC[C@]2(C)[C@@H](O)CC[C@@H]12 [2-methoxyestradiol] | 6.82 | 8.29 | 1230 nM | 794
28 | COc1cc2c(N3CCN(C(=O)Nc4ccc(OC(C)C)cc4)CC3)ncnc2cc1OCCCN1CCCCC1 [Tandutinib] | 0.708 | 3.18 | > 4170 nM | 1130
